Reference: patent publication US6004992A, “Aminocarboxylic acid fluorobutenyl esters” (Bayer Aktiengesellschaft, priority 1995, dated 1999)

Tests used:
[1] = system: Boophilus Microplus Resistent/SP-resistent Parkhurst Strain; experiment: Test with Boophilus Microplus Resistent/SP-resistent Parkhurst Strain (inhibition of oviposition); format: in vivo; details: 20 μg/animal; 1 μl injected into the abdomen, adult females; 100% = no tick has deposited eggs
Method: Test with Boophilus Microplus Resistent/SP-resistent Parkhurst Strain
Test animals: Adult females which have sucked themselves full
Solvent: Dimethyl sulphoxide
20 mg of active compound are dissolved in 1 ml of dimethyl sulphoxide, and lower concentrations are prepared by diluting in the same solvent.
The test is carried out in 5 replications. 1 μl of the solutions is injected into the abdomen, and the animals are transferred into dishes and kept in an air-conditioned room. The activity is determined via the inhibition of oviposition. 100% means that no tick has deposited eggs.

log p (pH 2) = format: physicochemical
Meloidogyne incognita = experiment: Critical Concentration Test/nematodes; format: in vivo; details: 20 ppm (=mg/l soil), four weeks, 25° C., 100% = infestation avoided completely
Method: Critical Concentration Test/nematodes
Test nematode: Meloidogyne incognita
Solvent: 4 parts by weight of acetone
Emulsifier: 1 part by weight of alkylaryl polyglycol ether
To produce a suitable preparation of active compound, 1 part by weight of active compound is mixed with the stated amount of solvent, the stated amount of emulsifier is added and the concentrate is diluted with water to the desired concentration.
The active compound preparation is intimately mixed with soil which is heavily infested with the test nematodes. The active compound concentration in the preparation is immaterial, only the amount of active compound per unit volume of soil, which is given in ppm (=mg/l), matters. The treated soil is transferred into pots, lettuce is sown in, and the pots are kept at a greenhouse temperature of 25° C.
After four weeks, the lettuce roots are checked for infestation with nematodes (root galls) and the efficacy of the active compound in % is determined. The efficacy is 100% when infestation is avoided completely and 0% when the infestation level is just as high as in the control plants in untreated, but equally infested, soil.

Compound | logD (log p (pH 2)) | also measured
CC(=O)NC(=Cc1cccs1)C(=O)OCCC(F)=C(F)F [Example Ia-4] |  | activity (inhibition of oviposition) [1]: 100%
O=C(CNC(=O)c1ccccc1)OCCC(F)=C(F)F [Ib-6] | 2.09 | 
CC(=O)NC(=Cc1ccccc1)C(=O)OCCC(F)=C(F)F [Example Ia-2] |  | efficacy of the active compound in % (nematode infestation of lettuce roots, root galls) (Meloidogyne incognita): 100%
O=C(OCCC(F)=C(F)F)C1CCCN1C(=O)OCc1ccccc1 (stereo not drawn) [Ic-1] | 3.31 | 
O=CNC1(C(=O)OCCC(F)=C(F)F)CC1 [Ib-14] | 1.32 | 
C[C@H](NC(=O)c1c(F)cccc1F)C(=O)OCCC(F)=C(F)F [Example Ib-2, 3,4,4-trifluorobut-3-enyl N-(2,6-difluorobenzoyl)-alaninate] | 2.42 | 
